Usually IC50 stands for the point on the concentration scale where inhibition reaches its midpoint. A lower IC50 goes with higher potency.

Holding throughout (type): biochemical
The target in one assay is T1, Lck (Homo sapiens, UniProt P06239).
T1 construct: purchased Carna Bioscience 08-170
Description: Lck kinase selectivity assay (Example 142 procedure, Table 3 modifications). Particulars: ATP 5 μM. The method, then: (§1) The purpose of the Tec in vitro assay is to determine compound potency against Tec through the measurement of IC50. Compound inhibition is measured after monitoring the amount of phosphorylation of a fluorescein-labeled polyGT peptide (Invitrogen PV3610) in the presence of active Tec enzyme (Carna Biosciences 08-182), ATP, and inhibitor. The Tec kinase reaction was done in a black 96 well plate (costar 3694). For a typical assay, a 29 μL aliquot of a ATP/peptide master mix (final concentration; ATP 25 μM, polyGT 100 nM) in kinase buffer (10 mM Tris-HCl pH 7.5, 10 mM MgCl2, 200 μM Na3PO4, 5 mM DTT, 0.01% Triton X-100, and 0.2 mg/ml casein) is added to each well. Next, 1 μL of a 3-fold, 50× compound titration in 100% DMSO solvent is added, followed by adding 20 uL of Tec enzyme mix in 1× kinase buffer (with a final concentration of 0.125 nM). The assay is incubated for 15 minutes before being stopped with 5 μl, of a 220 mM EDTA solution. Aliquots (5 μL) of the kinase reaction are transferred to a low volume white 384 well plate (Corning 3674), and 5 μL of a 2× detection buffer (Invitrogen PV3574, with 2 nM Tb-PY20 antibody, Invitrogen PV3552) is added. The plate is covered and incubated for 45 minutes at room temperature. Time resolved fluorescence (TRF) on Molecular Devices M5 (332 nm excitation; 488 nm emission; 518 nm fluorescein emission) is measured.
(§2) Using the procedure described in Example 142, with the modifications shown in Table 3, selectivity for Itk, Txk, and Lck was measured.

A further assay has as its target T2, Txk (Homo sapiens, UniProt P42681).
T2 construct: purchased Carna Bioscience 08-183
T2 sequence (P42681 1-527): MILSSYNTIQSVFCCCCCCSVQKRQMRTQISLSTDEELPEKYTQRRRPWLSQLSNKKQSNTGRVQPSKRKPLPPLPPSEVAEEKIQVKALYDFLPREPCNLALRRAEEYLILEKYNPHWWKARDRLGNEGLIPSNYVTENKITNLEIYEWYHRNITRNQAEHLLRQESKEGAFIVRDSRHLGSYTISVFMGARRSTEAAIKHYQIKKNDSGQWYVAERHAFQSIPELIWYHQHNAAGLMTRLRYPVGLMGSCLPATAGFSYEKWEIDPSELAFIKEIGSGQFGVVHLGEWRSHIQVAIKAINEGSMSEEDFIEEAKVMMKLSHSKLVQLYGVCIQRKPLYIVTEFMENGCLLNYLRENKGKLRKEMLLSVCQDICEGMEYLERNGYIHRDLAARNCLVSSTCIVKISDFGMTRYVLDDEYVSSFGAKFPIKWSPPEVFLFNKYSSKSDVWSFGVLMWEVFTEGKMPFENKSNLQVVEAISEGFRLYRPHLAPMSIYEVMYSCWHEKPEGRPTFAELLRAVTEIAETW
Description: Txk kinase selectivity assay (Example 142 procedure, Table 3 modifications). Particulars: ATP 100 μM. The method, then: as §1, §2

The target of the next assay is T3, Itk (Homo sapiens, UniProt Q08881).
T3 construct: purchased Carna Bioscience 08-181
T3 sequence (Q08881 1-620): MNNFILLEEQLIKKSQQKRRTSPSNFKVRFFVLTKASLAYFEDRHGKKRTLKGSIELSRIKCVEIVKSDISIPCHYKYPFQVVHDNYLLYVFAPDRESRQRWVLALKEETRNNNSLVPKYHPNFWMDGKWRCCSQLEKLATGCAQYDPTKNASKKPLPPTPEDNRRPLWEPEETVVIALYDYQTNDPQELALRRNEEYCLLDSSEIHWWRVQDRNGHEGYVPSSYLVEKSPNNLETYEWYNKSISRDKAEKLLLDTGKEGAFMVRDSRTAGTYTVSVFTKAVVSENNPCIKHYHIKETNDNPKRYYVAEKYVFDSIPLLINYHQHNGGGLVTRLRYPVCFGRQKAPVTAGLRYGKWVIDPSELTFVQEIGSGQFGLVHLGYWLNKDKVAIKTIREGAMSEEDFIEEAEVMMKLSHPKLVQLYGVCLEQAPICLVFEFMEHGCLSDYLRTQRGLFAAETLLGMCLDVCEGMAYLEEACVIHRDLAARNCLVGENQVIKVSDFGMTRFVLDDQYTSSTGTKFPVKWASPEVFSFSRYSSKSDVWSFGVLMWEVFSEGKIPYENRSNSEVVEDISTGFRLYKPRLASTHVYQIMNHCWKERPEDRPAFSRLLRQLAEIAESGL
Description: Itk kinase selectivity assay (Example 142 procedure, Table 3 modifications). To be noted: ATP 10 μM. The method, then: as §1, §2

In another assay the target is T4, Tec (Homo sapiens, UniProt P42680).
T4 construct: purchased Carna Biosciences 08-182
T4 sequence (P42680 1-631): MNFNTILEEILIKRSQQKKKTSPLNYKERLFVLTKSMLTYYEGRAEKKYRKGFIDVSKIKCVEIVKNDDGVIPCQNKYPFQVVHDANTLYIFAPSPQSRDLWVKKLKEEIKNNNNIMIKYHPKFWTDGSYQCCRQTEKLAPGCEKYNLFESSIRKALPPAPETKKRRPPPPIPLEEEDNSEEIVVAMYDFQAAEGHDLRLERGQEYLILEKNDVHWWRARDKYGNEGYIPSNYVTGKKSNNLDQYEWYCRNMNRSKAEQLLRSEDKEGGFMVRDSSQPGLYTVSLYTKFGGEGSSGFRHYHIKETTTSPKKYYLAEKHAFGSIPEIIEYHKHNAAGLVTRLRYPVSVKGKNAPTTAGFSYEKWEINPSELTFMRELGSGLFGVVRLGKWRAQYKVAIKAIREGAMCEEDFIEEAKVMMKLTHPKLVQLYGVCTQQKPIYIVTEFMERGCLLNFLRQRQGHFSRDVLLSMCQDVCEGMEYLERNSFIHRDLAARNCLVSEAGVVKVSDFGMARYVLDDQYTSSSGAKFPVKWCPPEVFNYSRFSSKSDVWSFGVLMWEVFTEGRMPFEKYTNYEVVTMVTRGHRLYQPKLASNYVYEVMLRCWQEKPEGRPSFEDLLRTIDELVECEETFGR
Description: In vitro Tec kinase selectivity assay (Tec-POLYGT-LS). Particulars: ATP 25 μM. The method, then:
In Vitro Tec Kinase Selectivity Assay
as §1

In another assay the target is T5, BTK (Homo sapiens, UniProt Q06187).
T5 construct: purchased Upstate 14-552
T5 sequence (Q06187 whole entry): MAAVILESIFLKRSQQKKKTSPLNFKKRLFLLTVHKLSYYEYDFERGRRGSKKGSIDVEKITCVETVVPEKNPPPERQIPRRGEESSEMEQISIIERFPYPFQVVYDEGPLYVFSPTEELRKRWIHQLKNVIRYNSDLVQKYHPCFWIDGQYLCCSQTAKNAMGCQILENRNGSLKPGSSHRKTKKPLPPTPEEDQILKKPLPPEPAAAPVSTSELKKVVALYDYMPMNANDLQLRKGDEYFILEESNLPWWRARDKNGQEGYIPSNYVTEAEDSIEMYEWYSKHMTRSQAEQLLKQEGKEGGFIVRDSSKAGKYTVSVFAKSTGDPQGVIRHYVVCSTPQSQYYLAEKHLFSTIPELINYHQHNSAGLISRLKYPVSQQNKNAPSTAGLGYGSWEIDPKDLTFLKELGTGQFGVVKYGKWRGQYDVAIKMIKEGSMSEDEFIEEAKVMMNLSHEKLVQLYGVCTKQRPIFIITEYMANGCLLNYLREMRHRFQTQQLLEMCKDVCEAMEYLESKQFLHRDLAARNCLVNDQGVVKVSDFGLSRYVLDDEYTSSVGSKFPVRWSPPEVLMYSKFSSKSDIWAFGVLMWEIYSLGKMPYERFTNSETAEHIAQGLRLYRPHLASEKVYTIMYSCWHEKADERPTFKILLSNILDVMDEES
Description: In vitro BTK kinase assay (BTK-POLYGAT-LS). Particulars: IC50 (10 uM ATP). In short, it runs like this:
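Poly-GAT peptide at 100 nM with 10 μM ATP (final) in pH 7.5 Tris buffer containing MgCl2, DTT, Triton X-100 and 0.2 mg/ml casein.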

The structures appear in SMILES notation.

T1 sequence (P06239 whole entry): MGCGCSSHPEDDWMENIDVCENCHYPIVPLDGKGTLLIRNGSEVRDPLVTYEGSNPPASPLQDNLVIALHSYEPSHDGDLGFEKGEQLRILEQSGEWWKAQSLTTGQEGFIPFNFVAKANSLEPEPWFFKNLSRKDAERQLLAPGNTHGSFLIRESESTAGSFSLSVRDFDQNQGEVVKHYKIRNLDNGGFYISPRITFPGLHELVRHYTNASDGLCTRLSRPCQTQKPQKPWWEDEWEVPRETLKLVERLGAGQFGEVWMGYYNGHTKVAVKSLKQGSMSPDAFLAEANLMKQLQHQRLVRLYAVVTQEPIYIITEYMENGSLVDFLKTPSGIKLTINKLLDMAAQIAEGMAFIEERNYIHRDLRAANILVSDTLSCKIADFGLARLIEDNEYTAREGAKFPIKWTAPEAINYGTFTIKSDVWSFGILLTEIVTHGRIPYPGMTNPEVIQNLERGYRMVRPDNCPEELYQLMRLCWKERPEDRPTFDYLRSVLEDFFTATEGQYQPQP

As for `CC(C)CN(CC(C)C)S(=O)(=O)c1ccccc1NCC(=O)N1CCC[C@@H](Nc2ncnc3[nH]ncc23)C1` [Compound 217], the half-maximal inhibitory concentration (IC50) on Lck is 1000 to 10000 nM; at Txk it was 1000 to 10000 nM; against Itk it was 100 to 999 nM; against Tec it was 100 to 999 nM; on BTK, < 100 nM.

`O=C(CNc1cc(Cl)cc(Cl)c1)N1CCC[C@@H](Nc2ncnc3[nH]ncc23)C1` [Compound 222]: the IC50 against Lck is 1000 to 10000 nM; against Txk, > 10000 nM; on Itk, 1000 to 10000 nM; on Tec, 100 to 999 nM; on BTK, < 100 nM.

These data come from US9273028B2, “Heterocyclic tyrosine kinase inhibitors” (Biogen MA Inc., priority 2010, dated 2016).
